# Results from patent publication US10233173B2, “Substituted 1,2,3-triazoles as NR2B-selective NMDA modulators” (JANSSEN PHARMACEUTICA NV, priority 2016, dated 2019).
# Biological target: human GluN1/GluN2B NMDA receptors (Homo sapiens, UniProt Q05586+Q13224)
# Test: Cell-based calcium flux (FLIPR) assay on cloned human NR1/NR2B ion channels expressed in mammalian cells
# Settings: standard assay; glutamate at ~EC80; FLIPR calcium flux
# How it was run: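 Calcium influx followed by FLIPR fluorescence after 5 min compound exposure and a further 5 min co-agonist challenge: 10 μM glycine with glutamate at ~EC80 (standard) or EC40 (HTS).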
# Sequence of human GluN1/GluN2B NMDA receptors (Q13224 27-1484, other chains not shown): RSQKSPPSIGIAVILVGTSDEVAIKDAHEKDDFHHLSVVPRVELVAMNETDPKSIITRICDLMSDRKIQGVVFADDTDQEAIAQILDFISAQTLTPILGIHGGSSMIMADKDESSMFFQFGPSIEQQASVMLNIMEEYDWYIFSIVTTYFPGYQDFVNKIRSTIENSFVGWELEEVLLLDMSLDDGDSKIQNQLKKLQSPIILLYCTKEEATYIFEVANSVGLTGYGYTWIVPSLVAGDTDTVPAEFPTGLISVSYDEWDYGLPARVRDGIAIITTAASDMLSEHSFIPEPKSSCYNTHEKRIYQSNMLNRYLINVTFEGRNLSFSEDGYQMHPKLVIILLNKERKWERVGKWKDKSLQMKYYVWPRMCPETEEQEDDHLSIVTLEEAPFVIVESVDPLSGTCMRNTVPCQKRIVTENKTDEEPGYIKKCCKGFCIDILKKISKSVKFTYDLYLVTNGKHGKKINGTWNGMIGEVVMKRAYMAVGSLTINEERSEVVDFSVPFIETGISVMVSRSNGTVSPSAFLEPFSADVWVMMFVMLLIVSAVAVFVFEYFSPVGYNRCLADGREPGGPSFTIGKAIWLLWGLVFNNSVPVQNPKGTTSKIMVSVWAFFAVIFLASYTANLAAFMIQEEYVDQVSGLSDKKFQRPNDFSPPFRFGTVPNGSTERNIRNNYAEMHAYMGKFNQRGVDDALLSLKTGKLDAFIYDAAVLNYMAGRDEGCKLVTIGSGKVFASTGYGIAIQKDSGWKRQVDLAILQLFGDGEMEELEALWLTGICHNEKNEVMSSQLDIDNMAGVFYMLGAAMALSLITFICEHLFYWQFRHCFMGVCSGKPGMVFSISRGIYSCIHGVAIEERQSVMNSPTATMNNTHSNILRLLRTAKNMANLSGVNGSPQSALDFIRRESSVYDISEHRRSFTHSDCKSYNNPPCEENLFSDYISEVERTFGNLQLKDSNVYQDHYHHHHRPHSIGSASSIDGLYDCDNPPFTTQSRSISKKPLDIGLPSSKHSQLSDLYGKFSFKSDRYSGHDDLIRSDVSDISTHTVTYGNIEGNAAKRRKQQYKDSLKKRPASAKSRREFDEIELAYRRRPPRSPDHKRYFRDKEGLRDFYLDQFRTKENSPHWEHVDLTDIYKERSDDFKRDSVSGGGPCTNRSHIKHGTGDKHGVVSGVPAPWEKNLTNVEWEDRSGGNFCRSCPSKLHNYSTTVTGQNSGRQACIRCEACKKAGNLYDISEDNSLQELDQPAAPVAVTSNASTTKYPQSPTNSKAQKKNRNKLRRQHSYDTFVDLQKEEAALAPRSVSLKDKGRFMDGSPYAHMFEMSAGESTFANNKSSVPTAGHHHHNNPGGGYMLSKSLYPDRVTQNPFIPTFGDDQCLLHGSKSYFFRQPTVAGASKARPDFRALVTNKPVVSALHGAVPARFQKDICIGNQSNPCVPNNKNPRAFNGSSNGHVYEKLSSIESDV
row,SMILES,IC50
1,"Fc1ccc(-n2cc(COc3nccc(N4CC(F)(F)C4)n3)nn2)cc1OC(F)F [Example 511, 4-(3,3-Difluoroazetidin-1-yl)-2-[[1-[3-(difluoromethoxy)-4-fluoro-phenyl]triazol-4-yl]methoxy]pyrimidine]",0.041 µM
2,"Cc1c(F)ccc(-n2cc(COc3ncc(C4CC4)cn3)nn2)c1F [Example 647, 5-Cyclopropyl-2-[[1-(2,4-difluoro-3-methyl-phenyl)triazol-4-yl]methoxy]pyrimidine]",0.034 µM
3,"OCc1ccnc(OCc2cn(-c3ccc(F)c(Br)c3)nn2)n1 [Example 617, [2-[[1-(3-Bromo-4-fluoro-phenyl)triazol-4-yl]methoxy]pyrimidin-4-yl]methanol]",0.041 µM
4,"CC(F)(F)c1cc(-n2cc(COc3nccc(N)n3)nn2)ccc1F [Example 580, 2-[[1-[3-(1,1-Difluoroethyl)-4-fluoro-phenyl]triazol-4-yl]methoxy]pyrimidin-4-amine]",0.088 µM
5,"CC(F)(F)c1cc(-n2cc(COc3nccc(C(F)F)n3)nn2)ccc1Cl [Example 536, 2-[[1-[4-Chloro-3-(1,1-difluoroethyl)phenyl]triazol-4-yl]methoxy]-4-(difluoromethyl)pyrimidine]",0.067 µM
6,"Cc1ccc(F)c(-n2cc(COc3ncc(Cl)c(C)n3)nn2)c1 [Example 485, 5-Chloro-2-[[1-(2-fluoro-5-methyl-phenyl)triazol-4-yl]methoxy]-4-methyl-pyrimidine]",1.01 µM
7,"CCNc1ccnc(OCc2cn(-c3ccc(F)c(OC(F)F)c3)nn2)n1 [Example 504, 2-((1-(3-(Difluoromethoxy)-4-fluorophenyl)-1H-1,2,3-triazol-4-yl)methoxy)-N-ethylpyrimidin-4-amine]",0.007 µM
8,"CC(F)(F)c1cc(-n2cc(COc3nccc(N4CCCCC4)n3)nn2)ccc1F [Example 592, 2-[[1-[3-(1,1-Difluoroethyl)-4-fluoro-phenyl]triazol-4-yl]methoxy]-4-(1-piperidyl)pyrimidine]",0.271 µM
9,"Cc1cccc(OCc2cn(-c3ccc(F)c(C(C)(F)F)c3)nn2)n1 [Example 556, 2-[[1-[3-(1,1-Difluoroethyl)-4-fluoro-phenyl]triazol-4-yl]methoxy]-6-methyl-pyridine]",0.098 µM
10,"CC(F)(F)c1cc(-n2cc(COc3ncc(OC(F)F)cn3)nn2)ccc1F [Example 572, 2-[[1-[3-(1,1-Difluoroethyl)-4-fluoro-phenyl]triazol-4-yl]methoxy]-5-(difluoromethoxy)pyrimidine]",0.025 µM
11,"Cc1cnc(OCc2cn(-c3ccc(F)c(F)c3)nn2)nc1 [Example 601, 2-[[1-(3,4-Difluorophenyl)triazol-4-yl]methoxy]-5-methyl-pyrimidine]",0.048 µM
12,"CCc1cnc(OCc2nnn(-c3ccc(F)c(C(C)(F)F)c3)c2C)nc1 [Example 593, 2-[[1-[3-(1,1-Difluoroethyl)-4-fluoro-phenyl]-5-methyl-triazol-4-yl]methoxy]-5-ethyl-pyrimidine]",0.486 µM
13,"CC(=O)c1cnc(OCc2cn(-c3ccc(F)c(C(F)(F)F)c3)nn2)nc1 [Example 447, 1-[2-[[1-[4-Fluoro-3-(trifluoromethyl)phenyl]triazol-4-yl]methoxy]pyrimidin-5-yl]ethanone]",0.014 µM
14,"CC(F)(F)c1cc(-n2cc(COc3ncc(C(F)F)cn3)nn2)ccc1Cl [Example 535, 2-[[1-[4-Chloro-3-(1,1-difluoroethyl)phenyl]triazol-4-yl]methoxy]-5-(difluoromethyl)pyrimidine]",0.009 µM
15,"Cc1cnc(OCc2cn(-c3ccnc(C(F)(F)F)c3)nn2)nc1 [Example 666, 5-Methyl-2-[[1-[2-(trifluoromethyl)-4-pyridyl]triazol-4-yl]methoxy]pyrimidine]",0.668 µM
16,"FC(F)c1cc(-n2cc(COc3nccc(N4CCCCC4)n3)nn2)ccc1Cl [Example 635, 2-[[1-[4-Chloro-3-(difluoromethyl)phenyl]triazol-4-yl]methoxy]-4-(1-piperidyl)pyrimidine]",0.169 µM
17,"COCc1cnc(OCc2cn(-c3ccc(F)c(C(C)(F)F)c3)nn2)nc1 [Example 569, 2-[[1-[3-(1,1-Difluoroethyl)-4-fluoro-phenyl]triazol-4-yl]methoxy]-5-(methoxymethyl)pyrimidine]",0.089 µM
18,"Cc1cnc(OCc2cn(-c3ccc(F)c(C(C)(F)F)c3)nn2)nc1N(C)C [Example 579, 2-[[1-[3-(1,1-Difluoroethyl)-4-fluoro-phenyl]triazol-4-yl]methoxy]-N,N,5-trimethyl-pyrimidin-4-amine]",0.087 µM
19,"CCc1cnc(OCc2cn(-c3ccnc(Br)c3)nn2)nc1 [Example 665, 2-[[1-(2-Bromo-4-pyridyl)triazol-4-yl]methoxy]-5-ethyl-pyrimidine]",0.261 µM
20,"CC(O)c1cnc(OCc2cn(-c3ccc(F)c(C(F)(F)F)c3)nn2)nc1 (racemic) [Example 448, (R/S)-1-[2-[[1-[4-Fluoro-3-(trifluoromethyl)phenyl]triazol-4-yl]methoxy]pyrimidin-5-yl]ethanol]",0.031 µM
21,"CCc1cnc(OCc2cn(-c3ccc(F)c(F)c3)nn2)nc1 [Example 602, 2-[[1-(3,4-Difluorophenyl)triazol-4-yl]methoxy]-5-ethyl-pyrimidine]",0.023 µM
22,"Cc1cnc(OCc2cn(-c3ccc(Cl)c(C(C)(F)F)c3)nn2)nc1 [Example 530, 2-[[1-[4-Chloro-3-(1,1-difluoroethyl)phenyl]triazol-4-yl]methoxy]-5-methyl-pyrimidine]",0.005 µM
23,"OCc1ccnc(OCc2cn(-c3ccc(F)c(OC(F)F)c3)nn2)n1 [Example 498, [2-[[1-[3-(Difluoromethoxy)-4-fluoro-phenyl]triazol-4-yl]methoxy]pyrimidin-4-yl]methanol]",0.019 µM

# Same assay, conditions: standard assay; human GluN1/GluN2B, calcium flux (FLIPR), glutamate ~EC80
row,SMILES,IC50
1,"COc1cnc(OCc2cn(-c3ccc(F)c(C(C)(F)F)c3)nn2)nc1 [Example 68, 2-[[1-[3-(1,1-Difluoroethyl)-4-fluoro-phenyl]triazol-4-yl]methoxy]-5-methoxy-pyrimidine]",0.007 µM
2,"CNc1nc(OCc2cn(-c3ccc(Cl)c(OC(F)F)c3)nn2)ncc1F [Example 389, 2-[[1-[4-Chloro-3-(difluoromethoxy)phenyl]triazol-4-yl]methoxy]-5-fluoro-N-methyl-pyrimidin-4-amine]",0.033 µM
3,"Cn1nccc1NCc1cn(-c2ccc(F)c(OC(F)F)c2)nn1 [Example 223, N-((1-(3-(Difluoromethoxy)-4-fluorophenyl)-1H-1,2,3-triazol-4-yl)methyl)-1-methyl-1H-pyrazol-5-amine]",11.8 µM
4,Cc1cnc(OCc2nnn(-c3cccc(C(F)F)c3)c2C)nc1 [Example 149],0.952 µM
5,"Fc1ccc(-n2cc(COc3ccccn3)nn2)cc1OC(F)F [Example 4, 2-[[1-[3-(Difluoromethoxy)-4-fluoro-phenyl]triazol-4-yl]methoxy]pyridine]",0.392 µM
6,"CC(C)c1cccc(-n2cc(COc3ncccn3)nn2)c1 [Example 262, 2-[[1-(3-Isopropylphenyl)triazol-4-yl]methoxy]pyrimidine]",0.358 µM
7,"Nc1nc(OCc2cn(-c3ccc(F)c(OC(F)F)c3)nn2)ncc1F [Example 167, 2-((1-(3-(Difluoromethoxy)-4-fluorophenyl)-1H-1,2,3-triazol-4-yl)methoxy)-5-fluoropyrimidin-4-amine]",0.013 µM
8,"CC(C)Oc1ccnc(OCc2cn(-c3ccc(Cl)c(OC(F)F)c3)nn2)n1 [Example 386, 2-((1-(4-Chloro-3-(difluoromethoxy)phenyl)-1H-1,2,3-triazol-4-yl)methoxy)-4-isopropoxypyrimidine]",0.504 µM
9,"Cc1cnc(OCc2cn(-c3cccc(C)n3)nn2)nc1 [Example 174, 5-Methyl-2-[[1-(6-methyl-2-pyridyl)triazol-4-yl]methoxy]pyrimidine]",> 2.99 µM
10,"Fc1ccc(-n2cc(COc3ccc(Cl)cn3)nn2)cc1OC(F)F [Example 117, 5-Chloro-2-[[1-[3-(difluoromethoxy)-4-fluoro-phenyl]triazol-4-yl]methoxy]pyridine]",0.073 µM
11,"Cc1cnc(OCc2cn(-c3ccc(F)c(C(F)(F)F)c3)nn2)nc1 [Example 81, 2-[[1-[4-Fluoro-3-(trifluoromethyl)phenyl]triazol-4-yl]methoxy]-5-methyl-pyrimidine]",0.003 µM
12,"FC(F)c1cccc(-n2cc(COc3ncc(Cl)cn3)nn2)c1 [Example 92, 5-Chloro-2-[[1-[3-(difluoromethyl)phenyl]triazol-4-yl]methoxy]pyrimidine]",0.019 µM
13,"CCc1cnc(OCc2cn(-c3cccc(C(F)F)c3)nn2)nc1 [Example 91, 2-[[1-[3-(Difluoromethyl)phenyl]triazol-4-yl]methoxy]-5-ethyl-pyrimidine]",0.004 µM
14,"FC(F)Oc1cc(-n2cc(COc3cccnc3)nn2)ccc1Cl [Example 5, 3-[[1-[4-Chloro-3-(difluoromethoxy)phenyl]triazol-4-yl]methoxy]pyridine]",0.333 µM
15,"CC(F)(F)c1cccc(-n2cc(COc3nccc(N4CCCC4)n3)nn2)c1 [Example 322, 2-[[1-[3-(1,1-Difluoroethyl)phenyl]triazol-4-yl]methoxy]-4-pyrrolidin-1-yl-pyrimidine]",0.011 µM
16,"FC(F)c1cc(-n2cc(CNc3ccncn3)nn2)ccc1Cl [Example 110, N-[[1-[4-Chloro-3-(difluoromethyl)phenyl]triazol-4-yl]methyl]pyrimidin-4-amine]",7.57 µM
17,"Cc1cnc(OCc2cn(-c3ccc(F)c(C)c3F)nn2)nc1 [Example 38, 2-[[1-(2,4-Difluoro-3-methyl-phenyl)triazol-4-yl]methoxy]-5-methyl-pyrimidine]",0.027 µM
18,"FC(F)Oc1cccc(-n2cc(COc3ncccn3)nn2)c1 [Example 323, 2-[[1-[3-(Difluoromethoxy)phenyl]triazol-4-yl]methoxy]pyrimidine]",0.788 µM
19,"CCc1cnc(OCc2cn(-c3cc(C)cc(C)c3)nn2)nc1 [Example 365, 2-[[1-(3,5-Dimethylphenyl)triazol-4-yl]methoxy]-5-ethyl-pyrimidine]",0.022 µM
